Data reported in ChEMBL document CHEMBL3886176, “TSH receptor antagonizing tetrahydroquinoline compounds” (2015).

Target: Thyrotropin receptor (Homo sapiens, UniProt P16473)
Type: functional, cell-based, CHO

Thyrotropin receptor, sequence (P16473 whole entry): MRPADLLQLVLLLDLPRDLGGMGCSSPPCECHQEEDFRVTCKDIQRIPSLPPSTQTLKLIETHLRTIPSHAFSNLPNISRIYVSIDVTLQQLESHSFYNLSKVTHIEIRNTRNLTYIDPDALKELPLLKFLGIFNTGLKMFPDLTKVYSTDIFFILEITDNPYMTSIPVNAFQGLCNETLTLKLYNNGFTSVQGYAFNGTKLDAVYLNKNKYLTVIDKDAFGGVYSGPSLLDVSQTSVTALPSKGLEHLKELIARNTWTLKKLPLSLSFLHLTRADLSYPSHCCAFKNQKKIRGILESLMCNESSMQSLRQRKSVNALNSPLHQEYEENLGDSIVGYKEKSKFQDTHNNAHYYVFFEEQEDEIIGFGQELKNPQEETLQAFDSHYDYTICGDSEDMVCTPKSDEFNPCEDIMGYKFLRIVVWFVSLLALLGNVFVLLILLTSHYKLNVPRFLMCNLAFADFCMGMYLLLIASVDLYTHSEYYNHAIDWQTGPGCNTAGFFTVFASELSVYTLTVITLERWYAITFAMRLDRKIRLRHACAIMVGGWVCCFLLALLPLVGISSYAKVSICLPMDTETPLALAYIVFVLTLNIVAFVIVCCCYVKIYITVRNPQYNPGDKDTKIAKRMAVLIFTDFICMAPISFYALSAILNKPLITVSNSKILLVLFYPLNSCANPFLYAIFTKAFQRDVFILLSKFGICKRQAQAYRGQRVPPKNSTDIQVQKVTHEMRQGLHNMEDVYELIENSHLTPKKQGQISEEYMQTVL

CC(=O)N1CCC(C)(c2ccccc2)c2cc(NC(=O)c3ccc(Br)s3)ccc21 (stereo unspecified)
IC50: < 100 nM
